Biological target: T1, human cathepsin S (CatS) (Homo sapiens, UniProt P25774)
T1 construct: made in house; host or cells: baculovirus system (insect cells)
Experiment: Recombinant human cathepsin S (CatS) fluorogenic substrate inhibition assay
Assay type: biochemical
Conditions: recombinant human CatS, 10 μM Z-Valine-Valine-Arginine-AMC, pH 5.0; average of results obtained; read-out: CatS IC50
Procedure: Recombinant human cathepsin S (CatS) was expressed in the baculovirus system and purified in one step with a thiopropyl-sepharose column. […] The assay is run in 150 mM sodium acetate pH 5.0 containing 1.5 mM DTT and 150 mM NaCl. […] Measurements are taken every min for 20 min. The rate is calculated from the slope of the increase in fluorescence and the percent inhibition is calculated from this.

T1 sequence (P25774 115-331): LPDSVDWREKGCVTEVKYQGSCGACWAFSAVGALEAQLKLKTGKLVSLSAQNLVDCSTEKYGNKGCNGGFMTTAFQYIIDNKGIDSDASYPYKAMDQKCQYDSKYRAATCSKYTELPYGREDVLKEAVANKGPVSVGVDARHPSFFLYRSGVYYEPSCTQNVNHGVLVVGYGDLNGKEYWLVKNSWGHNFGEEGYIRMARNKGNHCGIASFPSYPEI

Row | SMILES | IC50 [nM]
1 | CS(=O)(=O)N1CCc2c(c(-c3ccc(Cl)c(CNC(=O)c4ccc(F)cc4)c3)nn2CC(O)CN2CCC(N3CCCC3=O)CC2)C1 (stereo not drawn) [Example 1, N-[2-Chloro-5-(1-{2-hydroxy-3-[4-(2-oxo-pyrrolidin-1-yl)-piperidin-1-yl]-propyl}-5-methanesulfonyl-4,5,6,7-tetrahydro-1H-pyrazolo[4,3-c]pyridin-3-yl)-benzyl]-4-fluoro-benzamide] | 20
2 | CS(=O)(=O)N1CCc2c(c(-c3ccc(Cl)c(CNC(=O)c4ccc(F)cc4)c3)nn2CC(O)CN2CCC(N3CCCC3)CC2)C1 (stereo not drawn) [Example 14, N-(2-Chloro-5-{1-[2-hydroxy-3-(4-pyrrolidin-1-yl-piperidin-1-yl)-propyl]-5-methanesulfonyl-4,5,6,7-tetrahydro-1H-pyrazolo[4,3-c]pyridin-3-yl}-benzyl)-4-fluoro-benzamide] | 100
3 | CC(C)CC(=O)NCc1cc(-c2nn(CCCN3CCC(N4CCCC4=O)CC3)c3c2CN(S(C)(=O)=O)CC3)ccc1C(F)(F)F [Example 36, N-[5-(5-Methanesulfonyl-1-{3-[4-(2-oxo-pyrrolidin-1-yl)-piperidin-1-yl]-propyl}-4,5,6,7-tetrahydro-1H-pyrazolo[4,3-c]pyridin-3-yl)-2-trifluoromethyl-benzyl]-3-methyl-butyramide] | 80
4 | CN(C)CC(=O)NCc1cc(-c2nn(CCCN3CCC(N4CCCC4=O)CC3)c3c2CN(S(C)(=O)=O)CC3)ccc1C(F)(F)F [Example 38, 2-Dimethylamino-N-[5-(5-methanesulfonyl-1-{3-[4-(2-oxo-pyrrolidin-1-yl)-piperidin-1-yl]-propyl}-4,5,6,7-tetrahydro-1H-pyrazolo[4,3-c]pyridin-3-yl)-2-trifluoromethyl-benzyl]-acetamide] | 1540
5 | CC(C)=CC(=O)NCc1cc(-c2nn(CCCN3CCC(N4CCCC4=O)CC3)c3c2CN(S(C)(=O)=O)CC3)ccc1C(F)(F)F [Example 42, 3-Methyl-but-2-enoic acid 5-(5-methanesulfonyl-1-{3-[4-(2-oxo-pyrrolidin-1-yl)-piperidin-1-yl]-propyl}-4,5,6,7-tetrahydro-1H-pyrazolo[4,3-c]pyridin-3-yl)-2-trifluoromethyl-benzylamide] | 30
6 | CS(=O)(=O)N1CCc2c(c(-c3ccc(C(F)(F)F)c(CNC(=O)N4CCOCC4)c3)nn2CCCN2CCC(N3CCCC3=O)CC2)C1 [Example 45, Morpholine-4-carboxylic acid 5-(5-methanesulfonyl-1-{3-[4-(2-oxo-pyrrolidin-1-yl)-piperidin-1-yl]-propyl}-4,5,6,7-tetrahydro-1H-pyrazolo[4,3-c]pyridin-3-yl)-2-trifluoromethyl-benzylamide] | 80
7 | CS(=O)(=O)N1CCc2c(c(-c3ccc(C(F)(F)F)c(CNC(=O)c4ccc(Br)s4)c3)nn2CC(O)CN2CCC(N3CCCC3=O)CC2)C1 (stereo not drawn) [Example 48, 5-Bromo-thiophene-2-carboxylic acid 5-(1-{2-hydroxy-3-[4-(2-oxo-pyrrolidin-1-yl)-piperidin-1-yl]-propyl}-5-methanesulfonyl-4,5,6,7-tetrahydro-1H-pyrazolo[4,3-c]pyridin-3-yl)-2-trifluoromethyl-benzylamide] | 30
8 | CS(=O)(=O)N1CCc2c(c(-c3ccc(C(F)(F)F)c(CNC(=O)c4ccccn4)c3)nn2CC(O)CN2CCC(N3CCCC3=O)CC2)C1 (stereo not drawn) [Example 53, Pyridine-2-carboxylic acid 5-(1-{2-hydroxy-3-[4-(2-oxo-pyrrolidin-1-yl)-piperidin-1-yl]-propyl}-5-methanesulfonyl-4,5,6,7-tetrahydro-1H-pyrazolo[4,3-c]pyridin-3-yl)-2-trifluoromethyl-benzylamide] | 190
9 | CS(=O)(=O)N1CCc2c(c(-c3ccc(C(F)(F)F)c(CNC(=O)c4ccc(C(F)(F)F)nc4)c3)nn2CC(O)CN2CCC(N3CCCC3=O)CC2)C1 (stereo not drawn) [Example 54, N-[5-(1-{2-Hydroxy-3-[4-(2-oxo-pyrrolidin-1-yl)-piperidin-1-yl]-propyl}-5-methanesulfonyl-4,5,6,7-tetrahydro-1H-pyrazolo[4,3-c]pyridin-3-yl)-2-trifluoromethyl-benzyl]-6-trifluoromethyl-nicotinamide] | 70

Continued by falling IC50, values first:

Row | IC50 [nM] | SMILES
10 | 480 | CS(=O)(=O)N1CCc2c(c(-c3ccc(C(F)(F)F)c(CNC(=O)Cc4ccccc4)c3)nn2CCCN2CCC(N3CCCC3=O)CC2)C1 [Example 37, N-[5-(5-Methanesulfonyl-1-{3-[4-(2-oxo-pyrrolidin-1-yl)-piperidin-1-yl]propyl}-4,5,6,7-tetrahydro-1H-pyrazolo[4,3-c]pyridin-3-yl)-2-trifluoromethyl-benzyl]-2-phenyl-acetamide]
11 | 410 | CSC(=O)NCc1cc(-c2nn(CCCN3CCC(N4CCCC4=O)CC3)c3c2CN(S(C)(=O)=O)CC3)ccc1C(F)(F)F [Example 46, [5-(5-Methanesulfonyl-1-{3-[4-(2-oxo-pyrrolidin-1-yl)-piperidin-1-yl]-propyl}-4,5,6,7-tetrahydro-1H-pyrazolo[4,3-c]pyridin-3-yl)-2-trifluoromethyl-benzyl]-thiocarbamic acid S-methyl ester]
12 | 300 | CC(C)CCNCc1cc(-c2nn(CCCN3CCC(N4CCCC4=O)CC3)c3c2CN(S(C)(=O)=O)CC3)ccc1C(F)(F)F [Example 47, 1-{1-[3-(5-Methanesulfonyl-3-{3-[(3-methyl-butylamino)-methyl]-4-trifluoromethyl-phenyl}-4,5,6,7-tetrahydro-pyrazolo[4,3-c]pyridin-1-yl)-propyl]-piperidin-4-yl}-pyrrolidin-2-one]
13 | 200 | Cc1nnsc1C(=O)NCc1cc(-c2nn(CC(O)CN3CCC(N4CCCC4=O)CC3)c3c2CN(S(C)(=O)=O)CC3)ccc1C(F)(F)F (stereo not drawn) [Example 51, 4-Methyl-[1,2,3]thiadiazole-5-carboxylic acid 5-(1-{2-hydroxy-3-[4-(2-oxo-pyrrolidin-1-yl)-piperidin-1-yl]-propyl}-5-methanesulfonyl-4,5,6,7-tetrahydro-1H-pyrazolo[4,3-c]pyridin-3-yl)-2-trifluoromethyl-benzylamide]
14 | 190 | CS(=O)(=O)N1CCc2c(c(-c3ccc(C(F)(F)F)c(CNC(=O)c4ccco4)c3)nn2CC(O)CN2CCC(N3CCCC3=O)CC2)C1 (stereo not drawn) [Example 52, Furan-2-carboxylic acid 5-(1-{2-hydroxy-3-[4-(2-oxo-pyrrolidin-1-yl)-piperidin-1-yl]-propyl}-5-methanesulfonyl-4,5,6,7-tetrahydro-1H-pyrazolo[4,3-c]pyridin-3-yl)-2-trifluoromethyl-benzylamide]
15 | 160 | CC(C)NC(=O)NCc1cc(-c2nn(CCCN3CCC(N4CCCC4=O)CC3)c3c2CN(S(C)(=O)=O)CC3)ccc1C(F)(F)F [Example 44, 1-Isopropyl-3-[5-(5-methanesulfonyl-1-{3-[4-(2-oxo-pyrrolidin-1-yl)-piperidin-1-yl]-propyl}-4,5,6,7-tetrahydro-1H-pyrazolo[4,3-c]pyridin-3-yl)-2-trifluoromethyl-benzyl]-urea]
16 | 160 | Cc1ccsc1C(=O)NCc1cc(-c2nn(CC(O)CN3CCC(N4CCCC4=O)CC3)c3c2CN(S(C)(=O)=O)CC3)ccc1C(F)(F)F (stereo not drawn) [Example 49, 3-Methyl-thiophene-2-carboxylic acid 5-(1-{2-hydroxy-3-[4-(2-oxo-pyrrolidin-1-yl)-piperidin-1-yl]-propyl}-5-methanesulfonyl-4,5,6,7-tetrahydro-1H-pyrazolo[4,3-c]pyridin-3-yl)-2-trifluoromethyl-benzylamide]
17 | 80 | CC(C)OC(=O)NCc1cc(-c2nn(CCCN3CCC(N4CCCC4=O)CC3)c3c2CN(S(C)(=O)=O)CC3)ccc1C(F)(F)F [Example 43, [5-(5-Methanesulfonyl-1-{3-[4-(2-oxo-pyrrolidin-1-yl)-piperidin-1-yl]-propyl}-4,5,6,7-tetrahydro-1H-pyrazolo[4,3-c]pyridin-3-yl)-2-trifluoromethyl-benzyl]-carbamic acid isopropyl ester]
18 | 40 | CC(C)=CC(=O)NCc1cc(-c2nn(CC(O)CN3CCC(N4CCOCC4)CC3)c3c2CN(S(C)(=O)=O)CC3)ccc1C(F)(F)F (stereo not drawn) [Example 30, 3-Methyl-but-2-enoic acid 5-{1-[2-hydroxy-3-(4-morpholin-4-yl-piperidin-1-yl)-propyl]-5-methanesulfonyl-4,5,6,7-tetrahydro-1H-pyrazolo[4,3-c]pyridin-3-yl}-2-trifluoromethyl-benzylamide]
19 | 30 | CS(=O)(=O)N1CCc2c(c(-c3ccc(C(F)(F)F)c(CNC(=O)c4ccc(Cl)s4)c3)nn2CC(O)CN2CCC(N3CCCC3=O)CC2)C1 (stereo not drawn) [Example 6, 5-Chloro-thiophene-2-carboxylic acid 5-(1-{2-hydroxy-3-[4-(2-oxo-pyrrolidin-1-yl)-piperidin-1-yl]-propyl}-5-methanesulfonyl-4,5,6,7-tetrahydro-1H-pyrazolo[4,3-c]pyridin-3-yl)-2-trifluoromethyl-benzylamide]
20 | 30 | CS(=O)(=O)N1CCc2c(c(-c3ccc(C(F)(F)F)c(CNC(=O)c4cc5c(s4)CCC5)c3)nn2CC(O)CN2CCC(N3CCCC3=O)CC2)C1 (stereo not drawn) [Example 50, 5,6-Dihydro-4H-cyclopenta[b]thiophene-2-carboxylic acid 5-(1-{2-hydroxy-3-[4-(2-oxo-pyrrolidin-1-yl)-piperidin-1-yl]-propyl}-5-methanesulfonyl-4,5,6,7-tetrahydro-1H-pyrazolo[4,3-c]pyridin-3-yl)-2-trifluoromethyl-benzylamide]
21 | 20 | CS(=O)(=O)N1CCc2c(c(-c3ccc(C(F)(F)F)c(CNC(=O)c4ccc(F)cc4)c3)nn2CC(O)CN2CCC(N3CCCC3=O)CC2)C1 (stereo not drawn) [Example 17, 4-Fluoro-N-[5-(1-{2-hydroxy-3-[4-(2-oxo-pyrrolidin-1-yl)-piperidin-1-yl]-propyl}-5-methanesulfonyl-4,5,6,7-tetrahydro-1H-pyrazolo[4,3-c]pyridin-3-yl)-2-trifluoromethyl-benzyl]-benzamide]
